Where two headings read alike, the source gives them in different places.
Columns and labels:
BGT1 wt = molecular target: T1, BGT1 wt (Homo sapiens, UniProt P48065); assay: [3H]GABA uptake assay, transient expression in tsA201 cells; assay type: cell-based; settings: for IC50: BGT1 wt, tsA201 cells; for Selectivity ratio for BGT1 over GAT3: [3H]GABA uptake IC50 GAT3 wt / BGT1 wt
T1 construct: expressed in transfected cells; host or cells: tsA201 (transformed HEK293), transient
T1 sequence (P48065 1-614): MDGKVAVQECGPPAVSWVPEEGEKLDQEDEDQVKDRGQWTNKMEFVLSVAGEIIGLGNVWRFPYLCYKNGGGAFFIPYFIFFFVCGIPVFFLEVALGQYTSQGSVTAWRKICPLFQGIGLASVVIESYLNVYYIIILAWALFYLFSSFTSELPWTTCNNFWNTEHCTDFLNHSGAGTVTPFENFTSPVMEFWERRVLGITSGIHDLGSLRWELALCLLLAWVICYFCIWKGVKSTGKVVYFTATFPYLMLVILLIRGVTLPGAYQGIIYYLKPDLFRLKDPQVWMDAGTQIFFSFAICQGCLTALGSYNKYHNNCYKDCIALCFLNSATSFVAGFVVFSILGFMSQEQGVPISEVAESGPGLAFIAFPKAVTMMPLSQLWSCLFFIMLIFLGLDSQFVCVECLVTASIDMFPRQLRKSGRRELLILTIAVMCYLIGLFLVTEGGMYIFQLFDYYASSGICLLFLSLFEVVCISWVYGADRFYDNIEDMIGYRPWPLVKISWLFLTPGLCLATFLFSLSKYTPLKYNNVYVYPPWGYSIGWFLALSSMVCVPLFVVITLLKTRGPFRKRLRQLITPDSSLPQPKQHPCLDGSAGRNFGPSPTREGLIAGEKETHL
From the text: (§1) FIGURE 6 (A) Pocket alignment of the orthosteric site of the four GAT subtypes colored according to the default ClustalX color scheme ([Larkin et al., 2007]). The pocket was defined as all corresponding GAT residues (15 in total) that are within a distance of 4.5 Å of the co-crystallized ligand leucine in the homologous LeuT crystal structure (PDB ID 2A65) ([Yamashita et al., 2005]) according to the alignment by Kickinger et al. ([Kickinger et al., 2019]). The mutated residues in BGT1 and the corresponding residues in GAT1-3 are indicated by a red box. The numbering of all residues within the orthosteric pocket can be found in the Supplementary Table S1.
(§2) The tsA201 cell line (a transformed HEK293 cell line), the Flp-In CHO cell lines stably expressing human (h) GATs and the HEK293 cell line stably expressing human α1β2γ2 GABAA receptors have been described previously and were cultured accordingly ([Al-Khawaja et al., 2014]; [Falk-Petersen et al., 2020]). The tsA201 cell line used for transient expression of hGATs was transfected with DNA constructs (8 μg per 10 cm plate) using 40 μL PolyFect transfection reagent according to the manufacturer’s protocol (Qiagen).
(§3) Briefly, cells were seeded in white 96-well plates (White Opaque Tissue Culture (TC) plated 96-well Microplate) pre-coated with PDL. Medium was removed on the following day and cells washed with 100 µL/well assay buffer (HBSS supplemented with 20 mM HEPES, 1 mM CaCl2 and 1 mM MgCl2, pH 7.4). […] The cells were washed 3 times with 100 µL/well ice-cold assay buffer, 150 µL/well MicroScint™20 was subsequently added before the plate was shaken for at least 1 h. The plate was counted in a Packard TopCounter microplate scintillation counter (PerkinElmer) for 3 min per well. […] Data presented is the pooled data of at least three independent experiments with three technical replicates if not stated otherwise in figure legends. Concentration–response curves were fitted by non-linear regression to the sigmoidal concentration-response model with GraphPad Prism (version 9.0.0, GraphPad Software, San Diego, CA, United States) as described ([Lie et al., 2020]).

GAT3 wt = molecular target: T2, GAT3 wt (Homo sapiens, UniProt P48066); assay: as above; assay type: cell-based
T2 construct: expressed in transfected cells; host or cells: tsA201 (transformed HEK293), transient
T2 sequence (P48066 1-632): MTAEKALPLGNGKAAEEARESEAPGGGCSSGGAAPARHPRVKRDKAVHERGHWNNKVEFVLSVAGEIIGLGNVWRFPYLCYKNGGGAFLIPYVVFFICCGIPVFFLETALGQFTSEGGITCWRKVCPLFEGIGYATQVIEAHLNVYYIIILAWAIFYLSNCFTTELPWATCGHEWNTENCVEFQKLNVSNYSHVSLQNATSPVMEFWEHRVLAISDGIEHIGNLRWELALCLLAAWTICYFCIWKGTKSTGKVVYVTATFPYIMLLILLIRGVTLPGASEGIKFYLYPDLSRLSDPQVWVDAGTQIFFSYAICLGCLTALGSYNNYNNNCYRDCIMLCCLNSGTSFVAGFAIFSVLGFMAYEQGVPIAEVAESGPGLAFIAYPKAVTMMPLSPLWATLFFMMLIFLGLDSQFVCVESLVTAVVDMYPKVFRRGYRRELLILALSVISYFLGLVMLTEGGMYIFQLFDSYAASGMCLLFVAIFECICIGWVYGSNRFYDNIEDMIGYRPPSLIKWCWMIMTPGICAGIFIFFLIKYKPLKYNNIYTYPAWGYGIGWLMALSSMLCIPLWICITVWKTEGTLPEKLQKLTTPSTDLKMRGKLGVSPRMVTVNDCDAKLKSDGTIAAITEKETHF
From the text: as §1, §2, §3

Row | IC50 (BGT1 wt; 30 nM [3H]GABA, read-out: IC50) [µM] | Selectivity ratio for BGT1 over GAT3 (BGT1 wt) | IC50 (GAT3 wt) [µM] | IC50 (BGT1 wt; read-out: pIC50 ± S.E.M. (converted)) [µM] | SMILES
1 | 9.8 | 22 | 211 |  | CN[C@@]12CC[C@H](C(=O)O)[C@@H]1C2 [compound 2]
2 | 1.5 | 407 | 610 | 1.26 | N[C@@]12CC[C@H](C(=O)O)[C@@H]1C2 [bicyclo-GABA, (1S,2S,5R)-5-aminobicyclo[3.1.0]hexane-2-carboxylic acid]
